Earlier results in patent US12686652B2, “Methods of increasing irrigation water and fertilizer delivery to soil using formic acid and formate salts, making a formate salt from carbon dioxide, and generating a carbon credit” (Deerpoint Group, Inc., priority 2023, dated 2026).
Read-outs that look alike come from different tables or passages of the source.

Details: cited from earlier work

[Fe+2] [Fe^+2]
Solubility with anion CO3^−2: VSS (VSS means very slightly soluble (20-2,000 ppm)) | Solubility with anion CO3^−2 (listed as Fe^+3): I (I means insoluble (<20 ppm)) | Solubility with anion Cl^− (anion Cl^−): S (S means soluble (over 5,000 ppm)) | Solubility with anion HCO3^−: SS (SS means slightly soluble (2,000 to 5,000 ppm)) | Solubility with anion HCO3^− (listed as Fe^+3): I (I means insoluble (<20 ppm)) | Solubility with anion NO3^− (anion NO3^−): S (S means soluble (over 5,000 ppm)) | Solubility with anion OH^−: VSS (VSS means very slightly soluble (20-2,000 ppm)) | Solubility with anion OH^− (listed as Fe^+3): I (I means insoluble (<20 ppm)) | Solubility with anion PO4^−3 (anion PO4^−3): I (I means insoluble (<20 ppm)) | Solubility with anion SO4^−2 (anion SO4^−2): S (S means soluble (over 5,000 ppm)) | Solubility with anion S^−2 (anion S^−2): I (I means insoluble (<20 ppm))
